What was measured:
Assay type in all cases: cell-based
[1] = molecular target: Human TRPML1 (Homo sapiens, UniProt Q9GZU1, L15A/L16A/L577A/L578A); experiment: Fluorescent TRPML1 assay (Fluo4-AM, HEK-293 Trex cells expressing hTRPML1); conditions: fluorescent calcium assay, doxycycline-induced hTRPML1
In short: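 Doxycycline-induced (0.5 μg/mL) HEK-293 Trex cells stably expressing surface-targeted mutant hTRPML1, loaded with 1 μM Fluo4-AM, then suspended in modified Ringer's with 10 mM calcium and added to compounds (20 μM to 6 nM final, half-log steps, triplicate). Fluorescence read at ex 480/em 540; percent activity versus plate controls, EC50 by non-linear regression.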

[2] = molecular target: T1, Human TRPML2 (Homo sapiens, UniProt Q8IZK6); experiment: Fluorescent TRPML2 assay (as for TRPML1); conditions: fluorescent calcium assay as for TRPML1, TRPML2 subtype
T1 construct: expressed in transfected cells
T1 sequence (Q8IZK6 1-566): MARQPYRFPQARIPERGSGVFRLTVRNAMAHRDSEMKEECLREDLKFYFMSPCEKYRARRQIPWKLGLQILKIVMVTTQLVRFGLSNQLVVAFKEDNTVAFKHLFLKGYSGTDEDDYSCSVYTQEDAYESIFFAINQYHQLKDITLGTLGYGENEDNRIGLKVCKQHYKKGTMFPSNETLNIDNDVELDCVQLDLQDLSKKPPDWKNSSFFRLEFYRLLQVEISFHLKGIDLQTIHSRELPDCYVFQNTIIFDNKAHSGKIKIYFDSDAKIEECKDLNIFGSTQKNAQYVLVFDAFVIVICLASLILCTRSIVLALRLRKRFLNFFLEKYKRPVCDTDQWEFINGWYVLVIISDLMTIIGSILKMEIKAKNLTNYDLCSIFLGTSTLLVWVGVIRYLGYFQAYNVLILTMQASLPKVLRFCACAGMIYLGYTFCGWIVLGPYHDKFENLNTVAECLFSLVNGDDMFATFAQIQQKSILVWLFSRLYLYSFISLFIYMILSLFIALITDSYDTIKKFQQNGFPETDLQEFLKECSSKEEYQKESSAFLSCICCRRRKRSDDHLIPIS
Protocol: HEK-293 Trex cells were stably transfected with a construct consisting of the human coding sequence for TRPML1 cloned into the tet-inducible plasmid pCDNA5 T/O. Mutations were introduced into the TRPML1 sequence to facilitate expression on the cell surface (Silvia Vergarajauregui, Rosa Puertollano Traffic. 2006 March; 7(3): 337-353). Briefly, the cells are cultured in 150 mm round tissue culture dishes containing 20 mL of media. The day before the assay the cells are rinsed with DPBS-Ca-Mg and then treated briefly with Trypsin-EDTA. The Trypsin-EDTA is diluted with growth media, and cells are counted. 38×10^6 cells are re-plated into 150 mm round tissue culture dishes in media containing 0.5 μg/mL doxycycline to induce expression of hTRPML1.
The day of the experiment cells are lifted from the plates as above and collected by centrifugation. The cells are then suspended in dye loading buffer consisting of Ringer's solution supplemented with 0.1% Pluronic Acid and 1 micromolar Fluo4-AM dye. Cells are loaded for ~60 minutes in the dark with occasional mixing. The cells are collected by centrifugation, the loading media aspirated, and the cells resuspended in 25 mL Ringer's solution and incubated ~60 minutes in the dark. The cells are again collected by centrifugation, rinsed in Ringer's Solution and resuspended to 0.2×10^6 cells/mL in modified Ringer's solution containing 10 mM calcium.
Compounds are dissolved to a concentration of 10 millimolar with DMSO. Compound plates are created by dispensing compounds into 384 well black wall clear bottom plates (Greiner 781091). Positive and negative controls are included on each plate. Typically, different amounts of each compound are tested ranging from 100 nanoMoles (20 micromolar final concentration) decreasing in half-log steps to 31 picoMoles (6 nanomolar final concentration). Each concentration is typically tested in triplicate.
50 microliters of dye-loaded cells are dispensed into each well of the compound assay plate created above. The fluorescence in each well is then determined with an excitation wavelength of 480 nm and an emission wavelength of 540 nm using either a Molecular Devices SpectraMax multimode plate reader or a Hamamatsu FDSS/uCell plate imager.
The resulting fluorescence for each well is exported as an ascii file and loaded into our LIMS for analysis. The percent activity of each compound at each concentration is determined by comparison to the positive and negative control wells included in each plate.
Assays for TRPML2 and TRPML3 were performed as above for TRPML1, by substituting the appropriate TRPML2 or TRPML3 subtype for the TRPML1.
EC50 values were calculated using a non-linear regression of Prism. In the table, “A” indicates an EC50 of less than 100 nM, “B” indicates an EC50 range from 100 nM to 500 nM: “C” indicates an EC50 range from 500 nM to 2 μM; and “D” indicates an EC50 greater than 2 μM.

[3] = molecular target: T2, Human TRPML3 (Homo sapiens, UniProt Q8TDD5); experiment: Fluorescent TRPML3 assay (as for TRPML1); conditions: fluorescent calcium assay as for TRPML1, TRPML3 subtype
T2 construct: expressed in transfected cells
T2 sequence (Q8TDD5 1-553): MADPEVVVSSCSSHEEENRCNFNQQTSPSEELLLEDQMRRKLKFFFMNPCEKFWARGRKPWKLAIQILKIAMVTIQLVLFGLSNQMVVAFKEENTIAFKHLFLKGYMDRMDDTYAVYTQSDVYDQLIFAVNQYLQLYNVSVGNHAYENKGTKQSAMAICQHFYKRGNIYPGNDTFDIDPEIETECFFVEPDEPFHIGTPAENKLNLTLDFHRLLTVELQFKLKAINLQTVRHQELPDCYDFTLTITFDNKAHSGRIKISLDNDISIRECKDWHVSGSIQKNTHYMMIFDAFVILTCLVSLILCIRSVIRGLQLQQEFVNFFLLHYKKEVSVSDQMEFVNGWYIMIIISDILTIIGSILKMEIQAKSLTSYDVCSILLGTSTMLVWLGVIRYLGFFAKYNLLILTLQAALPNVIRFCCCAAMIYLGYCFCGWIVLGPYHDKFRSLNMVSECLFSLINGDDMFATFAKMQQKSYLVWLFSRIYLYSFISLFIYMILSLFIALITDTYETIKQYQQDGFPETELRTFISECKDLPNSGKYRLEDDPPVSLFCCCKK
In short: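 Tet-inducible HEK-293 Trex cells expressing human TRPML2 or TRPML3, induced overnight with 0.5 μg/mL doxycycline, loaded with 1 μM Fluo4-AM and suspended in Ringer's solution with 10 mM calcium. Compounds tested in triplicate from 20 μM to 6 nM final in half-log steps; fluorescence at 480/540 nm. EC50 by non-linear regression, binned A–D.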

Sequence of Human TRPML1 (Q9GZU1 whole entry L15A/L16A/L577A/L578A): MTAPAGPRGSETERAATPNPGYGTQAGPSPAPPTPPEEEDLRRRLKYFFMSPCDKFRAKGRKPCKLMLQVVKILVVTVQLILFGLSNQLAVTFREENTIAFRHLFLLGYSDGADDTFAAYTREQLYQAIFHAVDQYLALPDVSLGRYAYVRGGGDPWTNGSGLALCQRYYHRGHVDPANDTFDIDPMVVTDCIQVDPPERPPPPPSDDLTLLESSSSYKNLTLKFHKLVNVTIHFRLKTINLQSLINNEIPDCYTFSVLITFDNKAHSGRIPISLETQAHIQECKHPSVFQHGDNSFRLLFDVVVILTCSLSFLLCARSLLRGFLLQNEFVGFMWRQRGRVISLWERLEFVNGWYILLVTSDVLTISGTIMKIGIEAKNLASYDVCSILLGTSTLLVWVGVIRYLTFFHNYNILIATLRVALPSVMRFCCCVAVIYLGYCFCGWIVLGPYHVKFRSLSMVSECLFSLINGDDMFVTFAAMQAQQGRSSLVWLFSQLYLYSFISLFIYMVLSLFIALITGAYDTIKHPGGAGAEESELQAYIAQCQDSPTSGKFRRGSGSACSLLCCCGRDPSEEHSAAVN

C[C@@H]1CN(c2ncnc3c2c(-c2ccccc2)cn3-c2cc(C#N)ccn2)[C@@H](C)CN1C(=O)C1(O)COC1 [Compound 120, 2-(4-((2S,5R)-4-(3-hydroxyoxetane-3-carbonyl)-2,5-dimethylpiperazin-1-yl)-5-phenyl-7H-pyrrolo[2,3-d]pyrimidin-7-yl)isonicotinonitrile]
EC50 [1]: 100 to 500 nM
EC50 [2]: > 2000 nM
EC50 [3]: 500 to 2000 nM

CCC(O)(CC)C(=O)N1C[C@H](C)N(c2ncnc3c2c(-c2ccccc2)cn3-c2cc(C#N)ccn2)C[C@H]1C [Compound 108, 2-(4-((2S,5R)-4-(2-ethyl-2-hydroxybutanoyl)-2,5-dimethylpiperazin-1-yl)-5-phenyl-7H-pyrrolo[2,3-d]pyrimidin-7-yl)isonicotinonitrile]
EC50 [1]: < 100 nM
EC50 [2]: 500 to 2000 nM
EC50 [3]: 100 to 500 nM

C[C@@H]1CN(c2ncnc3c2c(-n2cccn2)cn3-c2cc(C#N)ccn2)[C@@H](C)CN1C(=O)C(C)(C)O [Compound 133, 2-(4-((2S,5R)-4-(2-hydroxy-2-methylpropanoyl)-2,5-dimethylpiperazin-1-yl)-5-(1H-pyrazol-1-yl)-7H-pyrrolo[2,3-d]pyrimidin-7-yl)isonicotinonitrile]
EC50 [1]: 500 to 2000 nM
EC50 [2]: > 2000 nM
EC50 [3]: 500 to 2000 nM

C[C@@H]1CN(c2ncnc3c2c(-c2ccncc2)cn3-c2cccc(C#N)c2)[C@@H](C)CN1C(=O)C(C)(C)O [Compound 135, 3-(4-((2S,5R)-4-(2-hydroxy-2-methylpropanoyl)-2,5-dimethylpiperazin-1-yl)-5-(pyridin-4-yl)-7H-pyrrolo[2,3-d]pyrimidin-7-yl)benzonitrile]
EC50 [1]: 500 to 2000 nM
EC50 [2]: > 2000 nM
EC50 [3]: > 2000 nM

CCOC(C)(C)C(=O)N1C[C@H](C)N(c2ncnc3c2c(-c2ccccc2)cn3-c2cc(C#N)ccn2)C[C@H]1C [Compound 170, 2-(4-((2S,5R)-4-(2-ethoxy-2-methylpropanoyl)-2,5-dimethylpiperazin-1-yl)-5-phenyl-7H-pyrrolo[2,3-d]pyrimidin-7-yl)isonicotinonitrile]
EC50 [1]: < 100 nM
EC50 [2]: 100 to 500 nM
EC50 [3]: < 100 nM

COC1(C(=O)N2C[C@H](C)N(c3ncnc4c3c(-c3ccccc3F)cn4-c3cc(C#N)ccn3)C[C@H]2C)CN(C)C1 [Compound 163, 2-(5-(2-fluorophenyl)-4-((2S,5R)-4-(3-methoxy-1-methylazetidine-3-carbonyl)-2,5-dimethylpiperazin-1-yl)-7H-pyrrolo[2,3-d]pyrimidin-7-yl)isonicotinonitrile]
EC50 [1]: < 100 nM
EC50 [2]: > 2000 nM
EC50 [3]: < 100 nM

C[C@@H]1CN(c2ncnc3c2c(-c2ccccc2)cn3-c2cc(C#N)ccn2)[C@@H](C)CN1C(=O)CC(C)(C)O [Compound 159, 2-(4-((2S,5R)-4-(3-hydroxy-3-methylbutanoyl)-2,5-dimethylpiperazin-1-yl)-5-phenyl-7H-pyrrolo[2,3-d]pyrimidin-7-yl)isonicotinonitrile]
EC50 [1]: < 100 nM
EC50 [2]: 500 to 2000 nM
EC50 [3]: 100 to 500 nM

C[C@@H]1CN(c2ncnc3c2c(-c2ccncc2F)cn3-c2cc(C#N)ccn2)[C@@H](C)CN1C(=O)C(C)(C)O [Compound 146, 2-(5-(3-fluoropyridin-4-yl)-4-((2S,5R)-4-(2-hydroxy-2-methylpropanoyl)-2,5-dimethylpiperazin-1-yl)-7H-pyrrolo[2,3-d]pyrimidin-7-yl)isonicotinonitrile]
EC50 [1]: 100 to 500 nM
EC50 [2]: > 2000 nM
EC50 [3]: 500 to 2000 nM

C[C@@H]1CN(c2ncnc3c2c(-c2ccncc2)cn3-c2cccc(OC(F)(F)F)c2)[C@@H](C)CN1C(=O)C(C)(C)O [Compound 148, 1-((2R,5S)-2,5-dimethyl-4-(5-(pyridin-4-yl)-7-(3-(trifluoromethoxy)phenyl)-7H-pyrrolo[2,3-d]pyrimidin-4-yl)piperazin-1-yl)-2-hydroxy-2-methylpropan-1-one]
EC50 [1]: 500 to 2000 nM
EC50 [2]: > 2000 nM
EC50 [3]: > 2000 nM

CCOC(C)(C)C(=O)N1C[C@H](C)N(c2ncnc3c2c(N2CCC2)cn3-c2cc(C#N)ccn2)C[C@H]1C [Compound 173]
EC50 [1]: < 100 nM
EC50 [2]: 500 to 2000 nM
EC50 [3]: 100 to 500 nM

CC[C@H]1CN(C(=O)C(C)(C)O)[C@H](C)CN1c1ncnc2c1c(-c1ccccc1)cn2-c1cc(C#N)ccn1 [Compound 129, 2-(4-((2S,5R)-2-ethyl-4-(2-hydroxy-2-methylpropanoyl)-5-methylpiperazin-1-yl)-5-phenyl-7H-pyrrolo[2,3-d]pyrimidin-7-yl)isonicotinonitrile]
EC50 [1]: < 100 nM
EC50 [2]: > 2000 nM
EC50 [3]: 100 to 500 nM

C[C@@H]1CN(c2ncnc3c2c(-c2ccccc2)cn3-c2cc(C#N)ccn2)[C@@H](C)CN1C(=O)CC(O)(C(F)(F)F)C(F)(F)F [Compound 161, 2-(4-((2S,5R)-2,5-dimethyl-4-(4,4,4-trifluoro-3-hydroxy-3-(trifluoromethyl)butanoyl)piperazin-1-yl)-5-phenyl-7H-pyrrolo[2,3-d]pyrimidin-7-yl)isonicotinonitrile]
EC50 [1]: 100 to 500 nM
EC50 [2]: 500 to 2000 nM
EC50 [3]: < 100 nM

C[C@@H]1CN(c2ncnc3c2c(-c2ccncc2)cn3-c2cc(C#N)ccn2)[C@@H](C)CN1C(=O)C(C)(C)O [Compound 125, 2-(4-((2S,5R)-4-(2-hydroxy-2-methylpropanoyl)-2,5-dimethylpiperazin-1-yl)-5-(pyridin-4-yl)-7H-pyrrolo[2,3-d]pyrimidin-7-yl)isonicotinonitrile]
EC50 [1]: 100 to 500 nM
EC50 [2]: > 2000 nM
EC50 [3]: 500 to 2000 nM

C[C@@H]1CN(c2ncnc3c2c(-c2ccccc2F)cn3-c2cc(C#N)ccn2)[C@@H](C)CN1C(=O)C1(O)CCCCC1 [Compound 122, 2-(5-(2-fluorophenyl)-4-((2S,5R)-4-(1-hydroxycyclohexane-1-carbonyl)-2,5-dimethylpiperazin-1-yl)-7H-pyrrolo[2,3-d]pyrimidin-7-yl)isonicotinonitrile]
EC50 [1]: < 100 nM
EC50 [2]: 500 to 2000 nM
EC50 [3]: < 100 nM
